Measured values from patent publication US7405051B2, “Method of screening antiplatelet agents” (Astellas Pharma Inc., priority 2000, dated 2008).

Tests used:
[1] = system: ADP-induced platelet aggregation of human PRP; assay: ADP-induced human platelet aggregation in platelet-rich plasma (aggregometer); format: cell-based; conditions: sodium citrate, ADP 20 to 200 μmol/L added as inducer, FIGS. 1 and 2
Experimental: Blood was collected from a healthy person (adult) by using 1/10 volume of sodium citrate, and then platelet-rich plasma(PRP) was prepared in accordance with a method of De Marco et al. (J. Clin. Invest., 77, 1272-1277, 1986). The PRP was used after preparing it to 3×10^8 cells/mL by using an automatic blood cell counter (MEK6258; Nihon Kohden Corporation). As an inducer of aggregation, ADP which is a product manufactured by MC Medical Corporation was used.
The platelet aggregation was measured by using an aggregometer (MCM Hema Tracer 212; MC Medical Corpration). […] Changes of a transmitted light were recorded for 10 minutes, and then an aggregation inhibition (%) was calculated from the maximum aggregation rate.
The data for 2MeSAMP (FIG. 1) are represented by the “average” of the experiment results obtained by using two volunteers. […] The inhibitory strength was dependent on the concentration of ADP as an inducer.

[2] = molecular target: T1, HORK3 protein (human ADP receptor P2TAC) (Homo sapiens, UniProt Q9H244); assay: Inhibition of forskolin-stimulated cAMP production in CHO cell expressing HORK3 protein; format: cell-based; conditions: CHO-dhfr(-) cells expressing HORK3; 3 μmol/L forskolin; 37° C. 30 minutes; read-out: EC50, responsiveness against the HORK3 protein (decrease of cAMP produced by forskolin)
Text: It was found from Example 3 that the ADP receptor was a Gi-coupled receptor, and thus it is expected that the ADP receptor has an activity of suppressing the adenylate cyclase activity. […] In this connection, a dihydrofolate reductase (DHFR; an essential enzyme for de novo synthesis of nucleic acids) defective cell line [CHO-dhfr(−) line] was used in the present example. The plasmid pEF-BOS-dhfr-HORK3 was used as an expression plasmid to be used for expressing the HORK3 protein. The CHO-dhfr(−) line was seeded on each 10 cm-petri dish (1×10^6 cells/dish) by using an αMEM (with nucleic acids) medium. […] As a control, a gene transfection was carried out by using the plasmid pEF-BOS-dhfr (i.e., an empty vector without the HORK3 gene), instead of the plasmid pEF-BOS-dhfr-HORK3. After 24 hours from the gene transfection procedure, the transfected cells were taken and suspended in an αMEM (without nucleic acids) medium containing 100 nmol/L methotrexate (a competitive inhibitor of DHFR; manufactured by Wako Pure Chemical Industries). Each suspension was gradually diluted and reseeded on each 10 cm-petri dish. […] The amount of cAMP produced in each cell under each condition was measured by using the cAMP-EIA system in accordance with a protocol attached thereto.

[3] = molecular target: T1, HORK3 protein (human ADP receptor P2TAC); assay: Increase in intracellular Ca2+ concentration in C6-15 cell co-expressing HORK3 protein and Gqi (FLIPR); format: cell-based; parameters: expressed in transfected cells; host or cells: C6-15 rat glioma cells, transient co-transfection of pEF-BOS-dhfr-HORK3 and pEF-BOS-Gqi; conditions: C6-15 cells transfected with pEF-BOS-dhfr-HORK3 and pEF-BOS-Gqi; peak values, Logistic regression
Experimental: When most purines such as ADP, 2MeSADP (2-methylthio-ADP), or the like are added to a cell, the increase in intracellular Ca^2+ via an endogenous cellular membrane receptor is observed. […] In the present example, the C6-15 cell was used to express the HORK3 protein.
Further, the plasmid pEF-BOS-dhfr-HORK3 obtained in Example 1 was used as an expression plasmid to be used for expressing the HORK3 protein. […]
(§1) A time course of the change in the intracellular Ca^2+ concentration was measured by using FLIPR (manufactured by Molecular Device). More particularly, after 10 seconds from the beginning of measurement, 2MeSADP or ADP was added to wells to a final concentration of 3×10^−5 mol/L to 1×10^−12 mol/L. After the addition, each fluorescence intensity was measured at an interval of 1 second for 50 seconds, and then at an interval of 6 seconds for 4 minutes.
The change of the intracellular Ca^2+ concentration by 2MeSADP or ADP in the cells to which the plasmid pEF-BOS-dhfr-HORK3 and the plasmid pEF-BOS-Gqi had been transfected was measured, each peak value in various concentrations of 2MeSADP or ADP was plotted, and then the dependency upon the concentration was analyzed by using a Logistic regression method.

[4] = system: CHO cell transfected with the empty vector; assay: Forskolin-stimulated cAMP production in control CHO cell transfected with the empty vector; format: cell-based, Chinese hamster; conditions: 3 μmol/L forskolin
Experimental: The CHO-dhfr(−) line was seeded on each 10 cm-petri dish (1×10^6 cells/dish) by using an αMEM (with nucleic acids) medium. After culturing for 1 day, a gene transfection was carried out by using a transfection reagent (LipofectAMINE 2000; manufactured by GIBCO BRL) and the plasmid pEF-BOS-dhfr-HORK3 (8 μg). As a control, a gene transfection was carried out by using the plasmid pEF-BOS-dhfr (i.e., an empty vector without the HORK3 gene), instead of the plasmid pEF-BOS-dhfr-HORK3.
After 24 hours from the gene transfection procedure, the transfected cells were taken and suspended in an αMEM (without nucleic acids) medium containing 100 nmol/L methotrexate (a competitive inhibitor of DHFR; manufactured by Wako Pure Chemical Industries). Each suspension was gradually diluted and reseeded on each 10 cm-petri dish. Colonies which appeared after 2 weeks were individually taken, and used as a CHO cell expressing the HORK3 protein or a control CHO cell transfected with the empty vector in the following experiment.
The CHO cells expressing the HORK3 protein or the CHO cells transfected with the empty vector were seeded on a 24-well plate (1×10^5 cells/well). […]
The amount of cAMP produced in each cell under each condition was measured by using the cAMP-EIA system in accordance with a protocol attached thereto. […]

[5] = molecular target: T1, HORK3 protein (human ADP receptor P2TAC); assay: Forskolin-stimulated cAMP production in C6-15 cell expressing HORK3 protein (cAMP HTRF); format: cell-based; conditions: C6-15 cells expressing HORK3; for EC50: 1 μmol/L forskolin, 37° C. 30 minutes, read-out: EC50, responsiveness against the HORK3 protein (decrease of cAMP produced by forskolin)
Experimental: The C6-15 cells expressing the HORK3 protein were seeded on a 96-well plate (1×10^4 cells/well). After culturing for 1 day, cells were treated with a DMEM medium containing 1 mmol/L 3-isobutyl-1-methylxanthine (manufactured by Sigma) and 0.1% BSA for 10 minutes, and then the combination of 1 μmol/L forskolin (manufactured by Wako Pure Chemical Industries) and 2MeSADP (a final concentration=1×10^−12 to 1×10^−7 mol/L), or the combination of 1 μmol/L forskolin and ADP (a final concentration=1×10^−10 to 1×10^−5 mol/L) was added dropwise. After incubating at 37° C. for 30 minutes, the culture supernatant was discarded, and then cells were dissolved in PBS containing 0.2% Triton X-100.
The amount of cAMP produced in each cell under each condition was measured by using a cAMP HTRF kit (manufactured by CIS bio international) in accordance with a protocol attached thereto. When the amount of cAMP produced by stimulating with 1 μmol/L forskolin alone was regarded as 100%, a concentration-dependent curve for the amount of cAMP in the presence of 2MeSADP or ADP was drawn.
Next, effects of compounds, which are known to suppress the platelet aggregation, on the suppression of the amount of cAMP produced by the forskolin stimulus in the C6-15 cell expressing the HORK3 protein by 2MeSADP were examined. […] After incubating at 37° C. for 30 minutes, the culture supernatant was discarded, and then cells were dissolved in PBS containing 0.2% Triton X-100. The amount of cAMP produced was measured by using the cAMP HTRF kit in accordance with a protocol attached thereto. When the amount of cAMP produced by stimulating with 1 μmol/L forskolin alone was regarded as 0%, and that by stimulating with the combination of 1 μmol/L forskolin and 10 nmol/L 2MeSADP was regarded as 100%, a concentration-dependent curve of each inhibitor was drawn.

[6] = system: C6-15 cells transfected with pEF-BOS-dhfr (empty vector) and pEF-BOS-Gqi; assay: Intracellular Ca2+ concentration in control C6-15 cells transfected with empty vector and Gqi; format: cell-based, rat; conditions: empty vector plus Gqi control cells; 3x10^-5 to 1x10^-12 mol/L
Experimental: The C6-15 cells were seeded on a 96-well plate (96 well Black/clear bottom plate, collagen I coated; manufactured by BECTON DICKINSON) so that the concentration of cells became 2×10^4 cells/well. After culturing for 48 hours, a gene transfection was carried out by using a transfection reagent (LipofectAMINE 2000; manufactured by GIBCO BRL) and the combination of the plasmid pEF-BOS-dhfr-HORK3 (50 ng/well) and the plasmid pEF-BOS-Gqi (50 ng/well). As a control, a gene transfection was carried out by using the combination of the plasmid pEF-BOS-dhfr (i.e., an empty vector without the HORK3 gene) and the plasmid pEF-BOS-Gqi, instead of the combination of the plasmid pEF-BOS-dhfr-HORK3 and the plasmid pEF-BOS-Gqi. […]
as §1, with “minutes. […]” for “minutes.”

[7] = molecular target: T1, HORK3 protein (human ADP receptor P2TAC); assay: [3H]-2MeSADP binding assay on membrane fraction of C6-15 cell expressing HORK3 protein; conditions: 1 nmol/L [3H]-2MeSADP; 20 μg membrane fraction; room temperature 2 hours
Text: The C6-15 cells expressing the HORK3 protein prepared in Example 5 were taken and washed, and then suspended in 20 mmol/L Tris-HCl (pH7.4) containing 5 mmol/L EDTA and a protease inhibitor cocktail set (Complete™; manufactured by Boeringer Mannheim). The whole was homogenized by using a POLYTRON, and ultracentrifuged. The pellet was suspended in 50 mmol/L Tris-HCl (pH7.4) containing 1 mmol/L EDTA, 100 mmol/L NaCl, 0.1% BSA, and Complete™ to obtain a membrane fraction.
After [^3H]-2MeSADP (manufactured by Moravek Biochemical) was added to 20 μg of the membrane fraction as a final concentration of 0.25 to 50 nmol/L, and was incubated in 250 μL of 50 mmol/L Tris-HCl (pH7.4) containing 1 mmol/L EDTA, 100 mmol/L NaCl, 0.1% BSA, and Complete™ at room temperature for 1 hour, the whole was collected on a glass filter by using a cell harvester. A microscintillator was added to the glass filter, and then a total amount of binding to the membrane fraction was measured by using a liquid scintillation counter. Further, an amount of non-specific binding to the membrane fraction was measured by adding 2MeSADP (a final concentration=50 μmol/L) in the above assay.
A microscintillator was added to the glass filter, and then radioactivity was measured by using a liquid scintillation counter. Further, radioactivity was measured by not adding the compound and by adding 2MeSADP (a final concentration=10 μmol/L) in the above assay, as a total amount of binding and an amount of non-specific binding, respectively.

T1 sequence (Q9H244 whole entry): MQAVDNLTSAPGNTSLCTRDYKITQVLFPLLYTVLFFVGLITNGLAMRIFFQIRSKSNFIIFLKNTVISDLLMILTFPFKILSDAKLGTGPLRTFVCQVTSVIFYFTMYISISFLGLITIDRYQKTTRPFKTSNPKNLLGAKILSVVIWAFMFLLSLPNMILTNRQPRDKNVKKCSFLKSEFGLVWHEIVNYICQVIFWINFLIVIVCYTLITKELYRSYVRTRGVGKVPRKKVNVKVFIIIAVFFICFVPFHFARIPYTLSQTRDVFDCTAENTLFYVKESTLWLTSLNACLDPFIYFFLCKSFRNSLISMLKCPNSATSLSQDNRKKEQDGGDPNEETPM

Row | SMILES | inhibition of ADP-induced platelet aggregation [1] | EC50 [2] [nM] | EC50 [3] [nM] | changes in the amount of cAMP produced by the forskolin stimulus [4] | EC50 [5] [nM] | change of the intracellular Ca2+ concentration [6] | IC50 [7] [nM] | IC50 ([5]; 1 μmol/L forskolin and 10 nmol/L 2MeSADP, read-out: IC50, inhibitory effect on the suppression by 2MeSADP in the amount of cAMP produced by the forskolin stimulus) [nM]
1 | CSCCNc1nc(SCCC(F)(F)F)nc2c1ncn2[C@@H]1O[C@H](COP(=O)(O)OP(=O)(O)C(Cl)(Cl)P(=O)(O)O)[C@@H](O)[C@H]1O [AR-C69931MX, N6-[2-methylthioethyl]-2-[3,3,3-trifluoropropylthio]-5′-ade nylic acid, monoanhydride with dichloromethylenebiphosphonic acid] | inhibited the ADP-induced platelet aggregation concentration-dependently |  |  |  |  |  |  | 
2 | CSc1nc(N)c2ncn([C@@H]3O[C@H](COP(=O)(O)OP(=O)(O)O)[C@@H](O)[C@H]3O)c2n1 [2MeSADP, 2-methylthio-ADP] |  | 0.07 | 5.4 | no changes | 0.08 | not observed |  | 
3 | Nc1ncnc2c1ncn2[C@@H]1O[C@H](COP(=O)(O)OP(=O)(O)O)[C@@H](O)[C@H]1O [ADP, adenosine 5′-diphosphate] |  | 35 | 220 | no changes | 42 | not observed |  | 
4 | CSc1nc(N)c2ncn([C@@H]3O[C@H](COP(=O)(O)O)[C@@H](O)[C@H]3O)c2n1 [2MeSAMP, 2-methylthio-adenosine monophosphate] | inhibited the ADP-induced platelet aggregation concentration-dependently |  |  |  |  |  | 4900 | 5000
